Experimental data: patent publication US11493451B2, “Colorimetric drug test strip using porous support material” (Palo Alto Research Center Incorporated, priority 2019, dated 2022)
Where two headings read alike, the source gives them in different places.

Columns and labels:
[1] = Cocaine and metabolites in human oral fluid and plasma following controlled administration (Scheidweiler et al.)
Source text: (§1) While pharmacokinetic profile is specific to each individual drug, there are multiple challenges with immunoassay-based roadside drug testing. Current hand-held immunoassays drug testing devices from saliva detect the metabolites of the drugs in question. One challenge with metabolite testing is that depending on the drug and on the mode of administration, there may be delays in the detectability of the drug from the time of ingestion to the test time. For example, in the case of methylenedioxy-methamphetamine (MDMA) detection, the time to maximum concentration of (tmax) of MDMA is 2.8 hours, while for its main metabolite, methylenedioxyamphetamine (MDA), the tmax increases to 4.8 hours. […] This makes metabolite detection very challenging.

[2] = Cocaine (75 mg subcutaneous), cited from earlier work
[3] = after MDMA; cited from earlier work
[4] = MDMA (75 mg), oral, cited from earlier work; for Concentration in Saliva: maximum concentration in oral fluid
[5] = Oral fluid and plasma MDMA and metabolite after controlled oral MDMA administration (Desrosiers et al.); format: in vivo, human; details: MDMA (75 mg); for Kp: human, saliva (oral fluid) / plasma, read-out: Ratio Saliva/Blood
Source text: This makes metabolite detection very challenging.

[6] = MA (20 mg), cited from earlier work; for Concentration in Saliva: maximum concentration in oral fluid
[7] = Methamphetamine disposition in oral fluid and plasma (Huestis et al.)
Source text: as §1

[8] = cited from earlier work; for Cmax in blood or plasma / Concentration in Saliva: THC (40 mg); for Concentration in Saliva: maximum concentration in oral fluid
[9] = THC and metabolite concentrations in oral fluid and whole blood after smoking a cannabis joint (Fabritius et al.)
Source text: as §1

[10] = cited from earlier work
[11] = Cocaine (75 mg subcutaneous), cocaine vs BE + EME

With COC(=O)[C@H]1[C@@H](OC(=O)c2ccccc2)C[C@@H]2CC[C@H]1N2C [Cocaine, cocaine] the “Ratio Parent:Metabolite, Cmax in blood or plasma” value (shortened to “Ratio Parent:Metabolite, Cmax”) [1, 11] was 0.8, the “Ratio Parent:Metabolite, concentration in saliva” value [1, 11] was 4.1 and the Kp ([1]; human, saliva (oral fluid) / plasma, sc, 75 mg) was 3.6. For the same molecule, the “Cmax in blood or plasma” value [2] was 0.305 µg/mL and the “Concentration in Saliva” value ([2]; maximum concentration in oral fluid) was 1.092 µg/mL.

For CNC(C)Cc1ccc2c(c1)OCO2 (stereo not drawn) [MDMA, methylenedioxy-methamphetamine], the “time to maximum concentration (tmax)” value [3] is given as 2.8 h, the “Cmax in blood or plasma” value [4] is given as 0.15 µg/mL and the “Concentration in Saliva” value [4] is given as 1.643 µg/mL. For the same molecule, the “Ratio Parent:Metabolite, concentration in saliva” value ([5]; MDMA vs MDA) was 40 and the Kp [5] was 11.

For CC(N)Cc1ccccc1 (stereo not drawn) [A], the “Concentration in Saliva” value [6] is given as 0.014 µg/mL.

With CN[C@@H](C)Cc1ccccc1 [MA, methamphetamine] the “Ratio Parent:Metabolite, Cmax” value ([7]; MA (20 mg), MA vs A) was 5.3, the “Ratio Parent:Metabolite, concentration in saliva” value ([7]; MA (20 mg), MA vs A) was 13.7 and the Kp ([7]; human, saliva (oral fluid) / plasma, 20 mg) was 6. For the same molecule, the “Cmax in blood or plasma” value [6] was 0.032 µg/mL and the “Concentration in Saliva” value [6] was 0.192 µg/mL.

In the case of CC(N)Cc1ccc2c(c1)OCO2 (stereo not drawn) [MDA, methylenedioxyamphetamine], the “time to maximum concentration (tmax)” value [3] is listed as 4.8 h, the “Cmax in blood or plasma” value [4] is listed as 0.007 µg/mL and the “Concentration in Saliva” value [4] is listed as 0.041 µg/mL. For the same molecule, the Kp [5] was 5.8.

In the case of CCCCCc1cc(O)c2c(c1)OC(C)(C)[C@@H]1CCC(C(=O)O)=C[C@@H]21 [THC-COOH], the “Cmax in blood or plasma” value [8] is listed as 0.041 µg/mL, the “Concentration in Saliva” value [8] is listed as 0.0003 µg/mL and the “Ratio Saliva/Blood” value ([9]; THC (40 mg)) is listed as 0.007.

For CCCCCc1cc(O)c2c(c1)OC(C)(C)[C@@H]1CCC(C)=C[C@@H]21 [THC, Δ9-tetrahydrocannabinol], the “Cmax in blood or plasma” value [8] is given as 0.087 µg/mL, the “Concentration in Saliva” value [8] is given as 0.636 µg/mL and the “THC concentration in saliva relative to main metabolite THC-COOH (times higher)” value ([8]; in one study, saliva) is given as about 2000 ×. The “time over which saliva THC concentration decreases slowly after consumption” value ([10]; THC ingested from food, saliva) was “about 24 hours”, the “THC concentration in saliva after being ingested from food versus same amount of smoked THC” value ([10]; first 15 minutes, saliva) was “about ten times lower” and the “rapid decay after maximum concentration” value ([10]; smoked or vaped THC) was 1 to 2 h. For the same molecule, the “time to peak effect and maximum concentration” value ([10]; smoked or vaped THC) was “seconds or minutes”, the “Ratio Parent:Metabolite, Cmax” value ([9]; THC (40 mg), THC vs THC-COOH) was 2.1 and the “Ratio Parent:Metabolite, concentration in saliva” value ([9]; THC (40 mg), THC vs THC-COOH) was 2120. It also gave a Kp ([9]; human, saliva (oral fluid) / whole blood, inhaled, 40 mg) of 7.3.
